From the NIST ThermoML archive (doi:10.1016/j.jct.2018.02.013)
Numbers after ± are expanded uncertainties.

Columns and labels:
[1] = 101.33 kPa, Liquid; for thermal conductivity: transient hot wire; for mass density: Vibrating tube method; for viscosity: Cone and plate viscometry; for electrical conductivity: Direct current cell with electrodes
[2] = molar heat capacity at constant pressure; conditions: 101.33 kPa, Liquid, Small sample (50 mg) DSC

CCCCCCCCn1cc[n+](C)c1.O=S(=O)([N-]S(=O)(=O)C(F)(F)F)C(F)(F)F
[1]
Conditions	thermal conductivity [W/m/K]
280.03 K	0.1289 ± 0.01
288.73 K	0.1279 ± 0.012
297.76 K	0.1279 ± 0.013
307.59 K	0.1279 ± 0.0082
318.58 K	0.1265 ± 0.012
328.58 K	0.1259 ± 0.012
337.48 K	0.1259 ± 0.014
347.72 K	0.1259 ± 0.013
357.76 K	0.1245 ± 0.014

CC(=O)[O-].CCCCCCCCCCCCCC[P+](CCCCCC)(CCCCCC)CCCCCC [trihexyl(tetradecyl)phosphonium acetate]
Conditions	electrical conductivity [S/m]	mass density [kg/m3]	molar heat capacity at constant pressure [J/K/mol]	thermal conductivity [W/m/K]	viscosity [mPa·s]
[1], 278.37 K	–	–	–	0.1629 ± 0.0089	–
[1], 288.1 K	–	–	–	0.1612 ± 0.0085	–
[1], 293.15 K	–	897.6 ± 1.9	–	–	–
[1], 293.2 K	–	–	–	–	254 ± 17
[1], 298.15 K	–	894.6 ± 1.9	–	–	–
[1], 298.16 K	–	–	–	0.1602 ± 0.0095	–
[1], 298.2 K	–	–	–	–	196.2 ± 13
[1], 299.6 K	0.00554 ± 0.0003	–	–	–	–
[1], 303.15 K	–	891.5 ± 1.9	–	–	–
[1], 303.2 K	–	–	–	–	151.2 ± 9.8
[1], 303.9 K	0.00767 ± 0.00037	–	–	–	–
[1], 307.92 K	–	–	–	0.1598 ± 0.01	–
[1], 308.2 K	–	–	–	–	117.4 ± 7.5
[1], 308.7 K	0.0101 ± 0.00046	–	–	–	–
[1], 313.15 K	–	885.2 ± 1.9	–	–	–
[1], 313.2 K	–	–	–	–	92.23 ± 5.8
[1], 313.7 K	0.0129 ± 0.00058	–	–	–	–
[1], 317.98 K	–	–	–	0.1582 ± 0.01	–
[1], 318.2 K	–	–	–	–	73.75 ± 4.6
[1], 318.8 K	0.0167 ± 0.00074	–	–	–	–
[1], 323.15 K	–	879 ± 1.9	–	–	–
[1], 323.2 K	–	–	–	–	59.32 ± 3.6
[1], 323.8 K	0.0209 ± 0.0009	–	–	–	–
[1], 328.08 K	–	–	–	0.1565 ± 0.011	–
[1], 328.2 K	–	–	–	–	48.52 ± 3
[1], 328.8 K	0.026 ± 0.0011	–	–	–	–
[1], 333.15 K	–	872.9 ± 1.9	–	–	–
[1], 333.2 K	–	–	–	–	40.22 ± 2.5
[1], 333.9 K	0.0317 ± 0.0014	–	–	–	–
[1], 338 K	–	–	–	0.1558 ± 0.011	–
[1], 338.2 K	–	–	–	–	33.78 ± 2.1
[1], 338.9 K	0.0383 ± 0.0016	–	–	–	–
[1], 343.15 K	–	866.7 ± 1.8	–	–	–
[1], 343.2 K	–	–	–	–	28.55 ± 1.8
[1], 343.9 K	0.0458 ± 0.0019	–	–	–	–
[1], 348.06 K	–	–	–	0.1551 ± 0.01	–
[1], 348.2 K	–	–	–	–	24.46 ± 1.5
[1], 349 K	0.0542 ± 0.0023	–	–	–	–
[1], 353.15 K	–	860.7 ± 1.8	–	–	–
[1], 353.2 K	–	–	–	–	20.95 ± 1.3
[1], 357.1 K	–	–	–	0.1541 ± 0.01	–
[1], 358.2 K	–	–	–	–	18.13 ± 1.1
[1], 363.15 K	–	854.7 ± 1.8	–	–	–
[1], 363.2 K	–	–	–	–	15.71 ± 0.96
[1], 368.2 K	–	–	–	–	13.72 ± 0.84
[2], 293.15 K	–	–	1095.6 ± 67	–	–
[2], 298.15 K	–	–	1097.7 ± 68	–	–
[2], 303.15 K	–	–	1101.5 ± 68	–	–
[2], 308.15 K	–	–	1105.9 ± 68	–	–
[2], 313.15 K	–	–	1111.3 ± 68	–	–
[2], 318.15 K	–	–	1116.7 ± 69	–	–
[2], 323.15 K	–	–	1122.7 ± 69	–	–
[2], 328.15 K	–	–	1128.1 ± 69	–	–
[2], 333.15 K	–	–	1134.1 ± 70	–	–
[2], 338.15 K	–	–	1140.6 ± 71	–	–
[2], 343.15 K	–	–	1147.1 ± 71	–	–
[2], 348.15 K	–	–	1154.2 ± 71	–	–
[2], 353.15 K	–	–	1158.5 ± 72	–	–
[2], 358.15 K	–	–	1166.7 ± 72	–	–
[2], 363.15 K	–	–	1173.2 ± 72	–	–

CCCC(=O)[O-].CCCCCCCCCCCCCC[P+](CCCCCC)(CCCCCC)CCCCCC [trihexyl(tetradecyl)phosphonium butyrate]
Conditions	electrical conductivity [S/m]	mass density [kg/m3]	molar heat capacity at constant pressure [J/K/mol]	thermal conductivity [W/m/K]	viscosity [mPa·s]
[1], 277.77 K	–	–	–	0.16 ± 0.0097	–
[1], 288.17 K	–	–	–	0.159 ± 0.0087	–
[1], 293.15 K	–	893 ± 1.9	–	–	–
[1], 293.2 K	–	–	–	–	334.3 ± 24
[1], 295.2 K	0.00389 ± 0.00019	–	–	–	–
[1], 298.15 K	–	890.4 ± 1.9	–	–	–
[1], 298.2 K	–	–	–	–	251.1 ± 17
[1], 298.48 K	–	–	–	0.1566 ± 0.0095	–
[1], 303.15 K	–	887.8 ± 1.9	–	–	–
[1], 303.2 K	–	–	–	–	190.2 ± 13
[1], 303.8 K	0.00631 ± 0.00028	–	–	–	–
[1], 306.44 K	–	–	–	0.1553 ± 0.0095	–
[1], 308.2 K	–	–	–	–	146.3 ± 9.5
[1], 308.5 K	0.0083 ± 0.00037	–	–	–	–
[1], 313.15 K	–	881.2 ± 1.9	–	–	–
[1], 313.2 K	–	–	–	–	115 ± 7.3
[1], 313.9 K	0.0106 ± 0.00048	–	–	–	–
[1], 318.11 K	–	–	–	0.1543 ± 0.0081	–
[1], 318.2 K	–	–	–	–	91.46 ± 5.7
[1], 318.5 K	0.0137 ± 0.00061	–	–	–	–
[1], 323.15 K	–	875.1 ± 1.9	–	–	–
[1], 323.2 K	–	–	–	–	74.08 ± 4.6
[1], 323.6 K	0.0172 ± 0.00075	–	–	–	–
[1], 327.69 K	–	–	–	0.1526 ± 0.011	–
[1], 328.2 K	–	–	–	–	60.22 ± 3.7
[1], 328.8 K	0.0214 ± 0.0009	–	–	–	–
[1], 333.15 K	–	869 ± 1.9	–	–	–
[1], 333.2 K	–	–	–	–	49.78 ± 3.1
[1], 333.8 K	0.0261 ± 0.0011	–	–	–	–
[1], 336.59 K	–	–	–	0.1509 ± 0.012	–
[1], 338.2 K	–	–	–	–	41.11 ± 2.5
[1], 338.7 K	0.0315 ± 0.0013	–	–	–	–
[1], 343.15 K	–	862.7 ± 1.8	–	–	–
[1], 343.2 K	–	–	–	–	34.26 ± 2.1
[1], 343.9 K	0.0377 ± 0.0016	–	–	–	–
[1], 348.16 K	–	–	–	0.1503 ± 0.01	–
[1], 348.2 K	–	–	–	–	28.85 ± 1.8
[1], 349.1 K	0.0446 ± 0.0019	–	–	–	–
[1], 353.15 K	–	856.7 ± 1.8	–	–	–
[1], 353.2 K	–	–	–	–	24.66 ± 1.5
[1], 355.83 K	–	–	–	0.1492 ± 0.011	–
[1], 358.2 K	–	–	–	–	21.36 ± 1.3
[1], 363.15 K	–	850.3 ± 1.8	–	–	–
[1], 363.2 K	–	–	–	–	18.76 ± 1.1
[1], 368.2 K	–	–	–	–	16.49 ± 1
[2], 293.15 K	–	–	1107.1 ± 69	–	–
[2], 298.15 K	–	–	1112.8 ± 69	–	–
[2], 303.15 K	–	–	1118.5 ± 69	–	–
[2], 308.15 K	–	–	1123.6 ± 69	–	–
[2], 313.15 K	–	–	1129.9 ± 70	–	–
[2], 318.15 K	–	–	1136.2 ± 70	–	–
[2], 323.15 K	–	–	1142.5 ± 70	–	–
[2], 328.15 K	–	–	1148.2 ± 71	–	–
[2], 333.15 K	–	–	1154.5 ± 71	–	–
[2], 338.15 K	–	–	1161.3 ± 71	–	–
[2], 343.15 K	–	–	1168.2 ± 72	–	–
[2], 348.15 K	–	–	1175 ± 73	–	–
[2], 353.15 K	–	–	1181.9 ± 73	–	–
[2], 358.15 K	–	–	1188.7 ± 73	–	–
[2], 363.15 K	–	–	1196.1 ± 74	–	–
